Experimental data: patent publication US12522583B2, “Benzimidazole derivatives and aza-benzimidazole derivatives as Janus kinase 2 inhibitors and uses thereof” (Dana-Farber Cancer Institute, Inc., priority 2018, dated 2026)

molecular target: JAK2 (Homo sapiens (Human), UniProt O60674); experiment: JAK2 Z-Lyte biochemical assay; settings: not given
Description: Example 3. JAK2 Z-Lyte Biochemical Assay of the Compounds of the Present Disclosure
The JAK2 Z-Lyte biochemical assay was performed according to manufacturer's instructions (Life Technologies).

JAK2, sequence (O60674 whole entry): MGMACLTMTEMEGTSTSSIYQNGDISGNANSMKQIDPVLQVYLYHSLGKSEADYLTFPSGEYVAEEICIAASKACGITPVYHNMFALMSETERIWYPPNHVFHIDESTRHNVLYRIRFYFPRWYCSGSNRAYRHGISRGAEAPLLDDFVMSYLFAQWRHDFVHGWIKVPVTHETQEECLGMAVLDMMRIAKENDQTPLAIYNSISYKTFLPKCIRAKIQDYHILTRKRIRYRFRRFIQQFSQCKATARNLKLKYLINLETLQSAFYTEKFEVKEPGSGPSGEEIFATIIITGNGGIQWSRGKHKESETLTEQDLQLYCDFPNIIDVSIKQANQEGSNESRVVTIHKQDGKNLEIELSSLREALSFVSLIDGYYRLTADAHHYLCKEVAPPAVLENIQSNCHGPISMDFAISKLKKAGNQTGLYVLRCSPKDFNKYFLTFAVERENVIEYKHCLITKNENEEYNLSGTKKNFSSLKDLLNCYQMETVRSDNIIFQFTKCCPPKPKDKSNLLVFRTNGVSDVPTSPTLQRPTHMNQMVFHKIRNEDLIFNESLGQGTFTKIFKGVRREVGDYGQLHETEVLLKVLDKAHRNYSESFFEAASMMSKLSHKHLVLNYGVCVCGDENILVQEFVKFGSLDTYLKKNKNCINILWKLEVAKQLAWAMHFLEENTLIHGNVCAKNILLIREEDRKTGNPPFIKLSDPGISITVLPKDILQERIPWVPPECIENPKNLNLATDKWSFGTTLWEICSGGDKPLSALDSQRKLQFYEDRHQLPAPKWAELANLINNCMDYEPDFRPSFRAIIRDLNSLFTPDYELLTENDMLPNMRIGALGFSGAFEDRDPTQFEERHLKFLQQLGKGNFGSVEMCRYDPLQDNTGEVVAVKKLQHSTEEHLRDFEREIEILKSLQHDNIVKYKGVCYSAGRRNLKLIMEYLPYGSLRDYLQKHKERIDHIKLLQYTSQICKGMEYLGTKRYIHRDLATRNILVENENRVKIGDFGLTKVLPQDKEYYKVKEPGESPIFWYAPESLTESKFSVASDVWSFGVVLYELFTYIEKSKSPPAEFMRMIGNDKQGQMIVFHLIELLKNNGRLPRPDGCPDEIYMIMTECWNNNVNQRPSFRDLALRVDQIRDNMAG

Point of comparison: `CCN1CCN(Cc2ccc(Nc3nc4ccc(Oc5ccnc(NC(=O)C6CCOCC6)c5)cc4n3C)cc2C(F)(F)F)CC1` [Compound I-18, N-(4-(2-(4-((4-ethylpiperazin-1-yl)methyl)-3-(trifluoromethyl)phenylamino)-3-methyl-3H-benzo[d]imidazol-5-yloxy)pyridin-2-yl)-tetrahydro-2H-pyran-4-carboxamide], IC50 6 µM. Against it:
- CC(=O)Nc1cc(Oc2ccc3nc(Nc4ccc(F)cc4F)n(C)c3c2)ccn1 [Compound I-1, N-(4-(2-(2,4-difluorophenylamino)-1-methyl-1H-benzo[d]imidazol-6-yloxy)pyridin-2-yl)acetamide] — 1.9-fold lower, 3.08 µM
- CCN1CCN(Cc2cc(Nc3nc4ccc(Oc5ccnc(NC(C)=O)c5)cc4n3C)cc(C(F)(F)F)c2)CC1 [Compound I-3, N-(4-(2-(3-((4-ethylpiperazin-1-yl)methyl)-5-(trifluoromethyl)phenylamino)-1-methyl-1H-benzo[d]imidazol-6-yloxy)pyridin-2-yl)acetamide] — 6.3-fold lower, 0.957 µM
- CC(=O)Nc1cc(Oc2ccc3nc(Nc4ccc(F)cc4F)[nH]c3c2C)ccn1 [Compound I-4, N-(4-(2-(2,4-difluorophenylamino)-4-methyl-1H-benzo[d]imidazol-5-yloxy)pyridin-2-yl)acetamide] — 13-fold lower, 0.449 µM
- CCN1CCN(Cc2ccc(Nc3nc4ccc(Oc5ccnc(NC(C)=O)c5)c(C)c4[nH]3)cc2C(F)(F)F)CC1 [Compound I-5, N-(4-(2-(4-((4-ethylpiperazin-1-yl)methyl)-3-(trifluoromethyl)phenylamino)-4-methyl-1H-benzo[d]imidazol-5-yloxy)pyridin-2-yl)acetamide] — 5.7-fold lower, 1.05 µM
- CCN1CCN(Cc2ccc(Nc3nc4cc(Oc5ccnc(NC(C)=O)c5)ccc4n3C)cc2C(F)(F)F)CC1 [Compound I-7, N-(4-(2-(4-((4-ethylpiperazin-1-yl)methyl)-3-(trifluoromethyl)phenylamino)-1-methyl-1H-benzo[d]imidazol-5-yloxy)pyridin-2-yl)acetamide] — within 1.5-fold, 8.53 µM
- CC(=O)Nc1cc(Oc2ccc3c(c2)nc(Nc2ccc(F)cc2F)n3C)ccn1 [Compound I-8, N-(4-(2-(2,4-difluorophenylamino)-1-methyl-1H-benzo[d]imidazol-5-yloxy)pyridin-2-yl)acetamide] — 65-fold lower, 0.0925 µM
- CCN1CCN(Cc2cc(Nc3nc4cc(Oc5ccnc(NC(C)=O)c5)ccc4n3C)cc(C(F)(F)F)c2)CC1 [Compound I-9, N-(4-(2-(3-((4-ethylpiperazin-1-yl)methyl)-5-(trifluoromethyl)phenylamino)-1-methyl-1H-benzo[d]imidazol-5-yloxy)pyridin-2-yl)acetamide] — 2.8-fold lower, 2.14 µM
- CC(=O)Nc1cc(Oc2ncc3[nH]c(Nc4ccc(F)cc4F)nc3n2)ccn1 [Compound I-10, N-(4-(8-(2,4-difluorophenylamino)-7H-purin-2-yloxy)pyridin-2-yl)acetamide] — higher, > 10 µM
- CC(=O)Nc1cc(Oc2ccc3nc(Nc4ccc(F)cc4F)nn3c2)ccn1 [Compound I-11, N-(4-(2-(2,4-difluorophenylamino)-[1,2,4]triazolo[1,5-a]pyridin-6-yloxy)pyridin-2-yl)acetamide] — higher, > 10 µM
- CC(=O)Nc1cc(Oc2ccc3nc(Nc4ccc(F)cc4F)n(C)c3n2)ccn1 [Compound I-12, N-(4-(2-(2,4-difluorophenylamino)-3-methyl-3H-imidazo[4,5-b]pyridin-5-yloxy)pyridin-2-yl)acetamide] — higher, > 10 µM
- COC(=O)c1cc(Oc2ccc3nc(Nc4ccc(F)cc4F)n(C)c3n2)ccn1 [Compound I-13, Methyl 4-((2-((2,4-difluorophenyl)amino)-3-methyl-3H-imidazo[4,5-b]pyridin-5-yl)oxy) picolinate] — higher, > 10 µM
- Cn1c(Nc2ccc(F)cc2F)nc2ccc(Oc3ccnc(C(=O)O)c3)nc21 [Compound I-14, 4-((2-((2,4-difluorophenyl)amino)-3-methyl-3H-imidazo[4,5-b]pyridin-5-yl)oxy)picolinic acid] — higher, > 10 µM
- CCN1CCN(Cc2ccc(Nc3nc4ccc(Oc5ccnc(NC(C)=O)c5)nc4n3C)cc2C(F)(F)F)CC1 [Compound I-15, N-(4-((2-((4-((4-ethylpiperazin-1-yl)methyl)-3-(trifluoromethyl)phenyl)amino)-3-methyl-3H-imidazo[4,5-b]pyridin-5-yl)oxy)pyridin-2-yl)acetamide] — 4.5-fold lower, 1.34 µM
- CCN1CCN(Cc2ccc(Nc3nc4nc(Oc5ccnc(NC(C)=O)c5)ncc4[nH]3)cc2C(F)(F)F)CC1 [Compound I-16, N-(4-((8-((4-((4-ethylpiperazin-1-yl)methyl)-3-(trifluoromethyl)phenyl)amino)-7H-purin-2-yl)oxy)pyridin-2-yl)acetamide] — higher, > 10 µM
- CCN1CCN(Cc2ccc(Nc3nc4ccc(Oc5ccnc(NC(=O)C6CCN(C)CC6)c5)cc4n3C)cc2C(F)(F)F)CC1 [Compound I-19, N-(4-(2-(4-((4-ethylpiperazin-1-yl)methyl)-3-(trifluoromethyl)phenylamino)-3-methyl-3H-benzo[d]imidazol-5-yloxy)pyridin-2-yl)-1-methylpiperidine-4-carboxamide] — within 1.5-fold, 8.03 µM
- CCN1CCN(Cc2ccc(Nc3nc4ccc(Oc5ccnc(N)c5)cc4n3C)cc2C(F)(F)F)CC1 [Compound I-20, 6-(2-aminopyridin-4-yloxy)-N-(4-((4-ethylpiperazin-1-yl)methyl)-3-(trifluoromethyl)phenyl)-1-methyl-1H-benzo[d]imidazol-2-amine] — 3.1-fold lower, 1.95 µM
- CCN1CCN(Cc2ccc(Nc3nc4ccc(Oc5ccnc(NC(=O)CCN(C)C)c5)cc4n3C)cc2C(F)(F)F)CC1 [Compound I-21, 3-(dimethylamino)-N-(4-(2-(4-((4-ethylpiperazin-1-yl)methyl)-3-(trifluoromethyl)phenylamino)-3-methyl-3H-benzo[d]imidazol-5-yloxy)pyridin-2-yl)propanamide] — within 1.5-fold, 4.93 µM
- CCN1CCN(Cc2ccc(Nc3nc4ccc(Oc5ccc(O)nc5)cc4n3C)cc2C(F)(F)F)CC1 [Compound I-22, 5-((2-((4-((4-ethylpiperazin-1-yl)methyl)-3-(trifluoromethyl)phenyl)amino)-1-methyl-1H-benzo[d]imidazol-6-yl)oxy)pyridin-2(1H)-one] — higher, > 10 µM
- Cn1c(Nc2ccc(F)cc2F)nc2ccc(Oc3ccc(O)nc3)cc21 [Compound I-23] — higher, > 10 µM

system: cell lines or patient-derived xenografts from patients with CRLF2-rearranged B-ALL; experiment: not given; settings: cited from earlier work

For `N#CC[C@H](C1CCCC1)n1cc(-c2ncnc3[nH]ccc23)cn1` [Ruxolitinib], the IC50 is given as over 20 µM.
